# Test system: Haemaphysalis longicornis
# Assay: Test Example 3: insecticidal test on Haemaphysalis longicornis by treating glass surface
# Format: in vivo
# Settings: 48 h, read-out: Mortality Rate (%)
# Method: Insecticidal Test on Haemaphysalis longicornis by Treating Glass Surface
# Acetone solutions were each prepared for the present hydrazide compounds and the present neonicotinoid compounds. To inner walls of a glass screw tube and lid (NO. 5, manufactured by Maruemu Corporation), 0.2 mL of the acetone solution was uniformly applied. […] The lid is closed tightly, and the number of dead ticks is examined after 2 days.
smiles,measurement,value
"CCN(Cc1ccc(Cl)nc1)/C(=C/[N+](=O)[O-])NC [Nitenpyram, nitenpyram]",mortality at 500 mg/m2,20%

# — patent publication US20130137682A1, “PEST CONTROL COMPOSITION” (SUMITOMO CHEMICAL COMPANY, LIMITED, priority 2010, published 2013)
